Article PMC10301432, “Antiplasmodial, Trypanocidal, and Genotoxicity In Vitro Assessment of New Hybrid α,α-Difluorophenylacetamide-statin Derivatives” (Pharmaceuticals, 2023)
Entries after “also recorded” stand apart in the source; their conditions may differ. Where two headings read alike, the source gives them in different places.

Key:
in vitro [1] = conditions: Salmonella enterica serovar Typhimurium, pH 7.4
[2] = tested on: Salmonella enterica serovar Typhimurium TA102
[3] = tested on: Salmonella enterica serovar Typhimurium TA98; test: Salmonella/microsome assay, TA98
Procedure: (§1) Salmonella enterica serovar Typhimurium (S. typhimurium) strains TA97, TA98, TA100, TA104 and TA102 from the authors’ stock were used as described in the mutagenicity assay.
(§2) To determine the cytotoxic effects, after 30 min pre-incubation, the assay mixtures were diluted in 0.9% NaCl (w/v) to obtain a suspension containing 2 × 10^2 cells/mL. […] The plates were then incubated at 37 °C for 24 h and the colonies counted. All the experiments were conducted in triplicate and were repeated at least twice. Statistical differences between the groups were analyzed by a two-way ANOVA (p < 0.05) and Tukey’s post hoc test.

[4] = tested on: trypomastigote forms of T. cruzi (Y strain); test: Trypanocidal activity on bloodstream trypomastigotes; format: cell-based, Trypanosoma cruzi; conditions: for EC50: Trypanosoma cruzi, bloodstream trypomastigotes, Y strain, 24 h at 37 °C
Procedure: Bloodstream trypomastigote forms (BT) of the Y strain were obtained from infected albino Swiss mice at the peak of parasitemia, isolated by differential centrifugation and resuspended in DMEM to a parasite concentration of 10^7 cells/mL in the presence of 10% of mouse blood. This suspension (100 µL) was added in the same volume of 13 (a–d) and 14 (a–d) previously prepared at twice the desired final concentrations.

in vitro [5] = format: cell-based; conditions: mouse
Procedure: Primary cultures of cardiac cells (CC) were obtained as reported in [50]. The cultures were sustained in Dulbecco’s modified Eagle’s medium (DMEM) supplemented with 10% horse serum, 5% fetal bovine serum (FBS), 2.5 mM CaCl2, 1 mM L-glutamine, and 2% chicken embryo extract. Cell cultures were maintained at 37 °C in an atmosphere of 5% CO2, and assays were run at least three times in triplicate.
Cardiac cell cultures were incubated for 24 h at 37 °C with different concentrations of the compounds (up to 200 µM) diluted in DMEM (without phenol red). Their morphology and spontaneous contractibility were evaluated by light microscopy and then the cellular viability was determined by the PrestoBlue® assay. For this colorimetric bioassay, PrestoBlue® (Invitrogen, Waltham, MA, USA) was added to each well (using a 10:1 medium/dye), the plate was further incubated for 24 h followed by optical density (OD) measurement performed at 570 and 600 nm, as recommended by the manufacturer.

[6] = tested on: Salmonella enterica serovar Typhimurium TA104; test: Salmonella/microsome assay, TA104
Procedure: as §1, §2

CHO-K1 cells = format: cell-based, Chinese Hamster
Procedure: Fresh HepG2 and CHO-K1 cells were seeded at the density of 1 × 10^5 cells/mL into 24-well plates (1 mL/per well). The compounds 13 (a–d) were then added to the medium to final concentrations of 500, 1000 and 2000 µM and incubation continued for 3 h or 24 h. DMSO 10% was used as the negative control, and, BaP (80 µM) for HepG2 and MMC (5 µM) for CHO-K1 were the positive controls. After exposure to the compounds, the cells were incubated for more than 24 h under growth conditions before quantification of the micronuclei and cytotoxicity. The cytogenetic studies were carried out in triplicate as described previously (see [51]). In order to determine the mitotic index and the number of cells with micronuclei, the medium was replaced by a cold methanol-glacial acetic acid (3:1) fixative for 30 min, and the cells then rinsed with distilled water for 2 min and air dried. The fixed cells were stained with 4,6-diamidino-2-phenylindole (DAPI) ([…]) dissolved in McIlvaine buffer (0.1 M citric acid plus 0.2 M Na2HPO4, pH 7.0) for 60 min, washed with McIlvaine buffer for 5 min, briefly rinsed with distilled water and mounted in glycerol. To determine the mitotic index and the number of cells with micronuclei, 1000 cells per well (3000 cells per concentration) were analyzed under a fluorescence microscope. The results for micronuclei were presented as the percentage of cells containing micronuclei in the 3000 cells/concentration group analyzed. Cells that glowed brightly and had homogenous nuclei were considered as having normal phenotypic morphology. Apoptotic nuclei were identified by the condensed chromatin at the periphery of the nuclear membrane or by fragmented nuclear body morphology. Necrotic cells presented chromatin forms with irregularly shaped aggregates, a pyknotic nucleus (shrunken and darkly stained) and cell membrane disruption, with cellular debris spilled into the extracellular milieu. Once again, 3000 cells were counted and the percentage of viable cells was evaluated, discounting apoptotic and necrotic cells. Statistical differences between the groups were analyzed by two-way ANOVA (p < 0.01) and Tukey’s post hoc test.

[7] = Salmonella/microsome assay, TA104; conditions: Salmonella enterica serovar Typhimurium, S. typhimurium TA104 with S9 mix, LC50 (bacterial cytotoxicity) TA104, presence of S9 mix
Procedure: as §1, §2

CC(=O)Nc1ccc(Br)cc1C(F)(F)C(=O)NCC[C@@H]1C[C@H](CC(=O)OC(C)(C)C)OC(C)(C)O1 [Compound 13d, tert-Butyl 2-((4R,6R)-6-(2-(2-(2-acetamido-5-bromophenyl)-2,2-difluoroacetamido)ethyl)-2,2-dimethyl-1,3-dioxan-4-yl)acetate]
CC50 (in vitro [1]): 14.7 ± 1.8 µM | revertant His+ colonies TA102 ([2]; +S9, 3 µM): 153 ± 13 | revertant His+ colonies TA102 ([2]; +S9, 15 µM): 155 ± 20 | revertant His+ colonies TA102 ([2]; +S9, 30 µM): 160 ± 11 | revertant His+ colonies TA102 ([2]; +S9, 150 µM): 162 ± 31 | revertant His+ colonies TA102 ([2]; +S9, 300 µM): 176 ± 11 | revertant His+ colonies TA102 ([2]; +S9, 1500 µM): Cytotoxic | revertant His+ colonies TA102 ([2]; −S9, 3 µM): 356 ± 7 | revertant His+ colonies TA102 ([2]; −S9, 15 µM): Cytotoxic | revertant His+ colonies TA98 ([3]; +S9, 3 µM): 28 ± 1 | revertant His+ colonies TA98 ([3]; +S9, 15 µM): 28 ± 5 | revertant His+ colonies TA98 ([3]; +S9, 30 µM): 31 ± 7 | revertant His+ colonies TA98 ([3]; +S9, 150 µM): 34 ± 2 | revertant His+ colonies TA98 ([3]; +S9, 300 µM): 34 ± 4 | revertant His+ colonies TA98 ([3]; +S9, 1500 µM): 35 ± 3 | revertant His+ colonies TA98 ([3]; −S9, 3 µM): 22 ± 7 | revertant His+ colonies TA98 ([3]; −S9, 15 µM): 23 ± 5 | revertant His+ colonies TA98 ([3]; −S9, 30 µM): 25 ± 1 | revertant His+ colonies TA98 ([3]; −S9, 150 µM): 25 ± 1 | revertant His+ colonies TA98 ([3]; −S9, 300 µM): 27 ± 5 | revertant His+ colonies TA98 ([3]; −S9, 1500 µM): Cytotoxic | SI ([4]; LC50 (cardiac cells)/EC50 (trypomastigotes)): >21.6 | EC50 [4]: 23.2 ± 3.13 µM | CC50 at 24 h (in vitro [5]): > 500 µM | revertant His+ colonies TA104 ([6]; +S9, 3 µM): 490 ± 52 | revertant His+ colonies TA104 ([6]; +S9, 15 µM): 513 ± 19 | revertant His+ colonies TA104 ([6]; +S9, 30 µM): 530 ± 7 | revertant His+ colonies TA104 ([6]; +S9, 150 µM): 541 ± 29 | revertant His+ colonies TA104 ([6]; +S9, 300 µM): 589 ± 5 | revertant His+ colonies TA104 ([6]; +S9, 1500 µM): 591 ± 11 | revertant His+ colonies TA104 ([6]; −S9, 3 µM): 469 ± 65 | revertant His+ colonies TA104 ([6]; −S9, 15 µM): 515 ± 61 | revertant His+ colonies TA104 ([6]; −S9, 30 µM): 570 ± 53 | revertant His+ colonies TA104 ([6]; −S9, 150 µM): 605 ± 61 | revertant His+ colonies TA104 ([6]; −S9, 300 µM): 615 ± 15 | revertant His+ colonies TA104 ([6]; −S9, 1500 µM): 620 ± 31 | micronuclei formation (genotoxicity) (CHO-K1 cells): induced genotoxicity

CC(=O)Nc1ccccc1C(F)(F)C(=O)NCC[C@@H]1C[C@H](CC(=O)OC(C)(C)C)OC(C)(C)O1 [Compound 13a, tert-Butyl 2-((4R,6R)-6-(2-(2-(2-acetamidophenyl)-2,2-difluoroacetamido)ethyl)-2,2-dimethyl-1,3-dioxan-4-yl)acetate]
CC50 (in vitro [1]): 1480 ± 56.1 µM | revertant His+ colonies TA102 ([2]; +S9, 3 µM): 384 ± 32 | revertant His+ colonies TA102 ([2]; +S9, 15 µM): 399 ± 32 | revertant His+ colonies TA102 ([2]; +S9, 30 µM): 407 ± 21 | revertant His+ colonies TA102 ([2]; +S9, 150 µM): 411 ± 46 | revertant His+ colonies TA102 ([2]; +S9, 300 µM): 448 ± 52 | revertant His+ colonies TA102 ([2]; +S9, 1500 µM): 501 ± 20 | revertant His+ colonies TA102 ([2]; −S9, 3 µM): 458 ± 19 | revertant His+ colonies TA102 ([2]; −S9, 15 µM): 435 ± 22 | revertant His+ colonies TA102 ([2]; −S9, 30 µM): 433 ± 7 | revertant His+ colonies TA102 ([2]; −S9, 150 µM): 380 ± 12 | revertant His+ colonies TA102 ([2]; −S9, 300 µM): 345 ± 48 | revertant His+ colonies TA102 ([2]; −S9, 1500 µM): Cytotoxic | revertant His+ colonies TA98 ([3]; +S9, 3 µM): 25 ± 8 | revertant His+ colonies TA98 ([3]; +S9, 15 µM): 25 ± 4 | revertant His+ colonies TA98 ([3]; +S9, 30 µM): 26 ± 5 | revertant His+ colonies TA98 ([3]; +S9, 150 µM): 27 ± 1 | revertant His+ colonies TA98 ([3]; +S9, 300 µM): 33 ± 1 | revertant His+ colonies TA98 ([3]; +S9, 1500 µM): 36 ± 3 | revertant His+ colonies TA98 ([3]; −S9, 3 µM): 24 ± 3 | revertant His+ colonies TA98 ([3]; −S9, 15 µM): 29 ± 6 | revertant His+ colonies TA98 ([3]; −S9, 30 µM): 31 ± 8 | revertant His+ colonies TA98 ([3]; −S9, 150 µM): 32 ± 3 | revertant His+ colonies TA98 ([3]; −S9, 300 µM): 52 ± 4 | revertant His+ colonies TA98 ([3]; −S9, 1500 µM): 61 ± 5 | mutagenicity to TA98 ([3]; −S9, at concentrations above 300 µM): significant mutagenicity; also recorded: enhanced the number of revertants | EC50 [4]: > 500 µM | CC50 at 24 h (in vitro [5]): > 500 µM | revertant His+ colonies TA104 ([6]; +S9, 3 µM): 390 ± 49 | revertant His+ colonies TA104 ([6]; +S9, 15 µM): 417 ± 15 | revertant His+ colonies TA104 ([6]; +S9, 30 µM): 467 ± 19 | revertant His+ colonies TA104 ([6]; +S9, 150 µM): 330 ± 9 | revertant His+ colonies TA104 ([6]; +S9, 300 µM): 268 ± 37 | revertant His+ colonies TA104 ([6]; +S9, 1500 µM): Cytotoxic | revertant His+ colonies TA104 ([6]; −S9, 3 µM): 264 ± 27 | revertant His+ colonies TA104 ([6]; −S9, 15 µM): 307 ± 18 | revertant His+ colonies TA104 ([6]; −S9, 30 µM): 314 ± 26 | revertant His+ colonies TA104 ([6]; −S9, 150 µM): 315 ± 36 | revertant His+ colonies TA104 ([6]; −S9, 300 µM): 316 ± 33 | revertant His+ colonies TA104 ([6]; −S9, 1500 µM): 350 ± 21 | CC50 at 30 min [7]: 1280 ± 21.1 µM | micronuclei formation (genotoxicity) (CHO-K1 cells): genotoxic
